Laboratory results: patent EP2379549B1, “7-AZAINDIRUBINS, 7'-AZAINDIRUBINS, 7-7'-DIAZAINDIRUBIN AND THE CORRESPONDING 3'-OXIME ETHER DERIVATES: PRODUCTION THEREOF, THEIR PRODUCTION AND USE AS A MEDICAMENT” (Eisenbrand, Gerhard, priority 2008, dated 2010)

Key:
[1] = system: C6 glioblastoma cells; details: murine C6 glioblastoma cells; parent 5-methylindirubin; cited from earlier work
[2] = system: human cancer cell lines; assay: Antiproliferative activity against human cancer cell lines; format: cell-based

Row | SMILES | effectiveness for inhibition of cells versus parent compound [1] | antiproliferative activity as compared to the parent molecule, indirubin [2]
1 | Cc1cc2c(cc1O)NC(=O)C2=C1Nc2ccccc2C1=O | as effective as the parent compound | 
2 | O=C1Nc2ccccc2C1=C1Nc2ncccc2C1=O [E843, 7'-Azaindirubin] |  | markedly augmented
